Test results published in patent US10647737B2, “Sulfated-glycolipids as adjuvants for vaccines” (National Research Council of Canada, priority 2014, dated 2020).
Several values for one entry are separate records, joined by “and”; a condition that tells them apart may be missing. Identical values can stand only once.

Key:
anti OVA antibody (IgG) = assay: Anti-OVA antibody titre in sera of immunized mice (Elisa); assay type: in vivo; settings: OVA-archaeosomes, immunized day 0 and 21; FIG. 13
Procedure: C57BL6 female mice ([…]) were immunized subcutaneously with 0.1 ml vaccines containing the equivalent of 20 μg OVA, often entrapped in archaeosomes of various compositions, A booster consisting of the same vaccine and route was given most often on week 3. In experiments addressing ability of archaeosomes to evoke immune response to a cancer self-antigen, TRP or Gp100 antigen in archaeosomes was administered at a dose of 15 μg antigen per injection and booster given on week 3.5 and week 8.5. In some experiments an additional third injection was given (˜95 days after first dose). All protocols and SOPs were approved by the NRC Animal Care Committee and conducted within the guidelines of the Canadian Council on Animal Care.
As a measure of CD4^+ T cell response, antibody raised to the antigen in the vaccine and present in the sera of mice (5-6 mice/group), was quantified by Elisa according to a previous description (Krishnan, L., Dicaire, C. J., Patel, G. B., and Sprott, G. D. 2000. Infect, Immun. 68:54-63). The CD8^+ T cell response was quantified by sacrificing 2 mice/group and pooling their splenic cells. These were assayed in triplicate for antigen-specific responses by Elispot and CTL methods (Krishnan, L., Sad, S., Patel, G. B., and Sprott, G. D. 2003. Cancer Res. 63:2526-2534).

[1] = Archaeosome formation by hydration of dried lipid; assay type: physicochemical; settings: lipid hydrated in PBS with antigen
Procedure: (§1) In one method, archaeosomes were formed by hydrating 20-30 mg dried lipid at 40° C. in 2 ml PBS buffer (10 mM sodium phosphate, 160 mM NaCl, pH 7.1) with the protein antigen OVA dissolved at 10 mg/ml. Vesicle size was reduced to about 100-150 nm diameter by brief sonication in a sonic bath (Fisher Scientific), and the portion of OVA antigen not entrapped was removed by centrifugation from 7 ml PBS followed by 2 washes (200,000×g max for 30 min). Vesicle pellets were resuspended in 2-2.5 ml PBS and filter sterilized through 0.45 μm Millipore filters. Sterile conditions and pyrogen-free water was used throughout.
In another method, lipids dissolved in t-butanol/water received antigen dissolved in an equal volume of water. The sample was then lyophilized to a powder and rehydrated in PBS buffer. Size was reduced, antigen not entrapped was removed, and filtration conducted as above.

[2] = Antigen loading of archaeosomes (SDS PAGE / SDS Lowry); assay type: physicochemical; settings: OVA antigen entrapped in archaeosomes
Procedure: as §1
In another method, lipids dissolved in t-butanol/water received antigen dissolved in an equal volume of water. The sample was then lyophilized to a powder and rehydrated in PBS buffer. […]
Quantification of antigen loading was conducted by separating protein(s) from lipids using SDS polyacrylamide gel electrophoresis as described (Sprott, G. D., Patel, G. B., and Krishnan, L. 2003. Methods Enzymol, 373:155-172). Loading of synthetic archaeosomes with antigens was also determined using SDS Lowry with standard curves prepared for the respective antigen. […] Average diameters based on Intensity and Zeta potentials were measured using a Malvern Nano Zetasizer with a He/Ne laser (Spectra Research Corp., Ontario, Canada).

[3] = Average diameter of archaeosomes (Malvern Nano Zetasizer); assay type: physicochemical
Procedure: as §1
Quantification of antigen loading was conducted by separating protein(s) from lipids using SDS polyacrylamide gel electrophoresis as described (Sprott, G. D., Patel, G. B., and Krishnan, L. 2003. Methods Enzymol, 373:155-172). Loading of synthetic archaeosomes with antigens was also determined using SDS Lowry with standard curves prepared for the respective antigen. Loading was based on μg protein/mg salt corrected dry weight of lipid. Average diameters based on Intensity and Zeta potentials were measured using a Malvern Nano Zetasizer with a He/Ne laser (Spectra Research Corp., Ontario, Canada).

CD8^+ T cell response = assay: Elispot of IFN-γ-secreting splenic cells of mice immunized with OVA-archaeosomes; assay type: in vivo; settings: OVA-loaded archaeosomes s.c. at 0 and 3 weeks; 6 weeks post first injection; FIG. 2
Procedure: (§2) C57BL6 female mice ([…]) were immunized subcutaneously with 0.1 ml vaccines containing the equivalent of 20 μg OVA, often entrapped in archaeosomes of various compositions, A booster consisting of the same vaccine and route was given most often on week 3. In experiments addressing ability of archaeosomes to evoke immune response to a cancer self-antigen, TRP or Gp100 antigen in archaeosomes was administered at a dose of 15 μg antigen per injection and booster given on week 3.5 and week 8.5. In some experiments an additional third injection was given (˜95 days after first dose). […]
(§3) As a measure of CD4^+ T cell response, antibody raised to the antigen in the vaccine and present in the sera of mice (5-6 mice/group), was quantified by Elisa according to a previous description (Krishnan, L., Dicaire, C. J., Patel, G. B., and Sprott, G. D. 2000. Infect, Immun. 68:54-63). The CD8^+ T cell response was quantified by sacrificing 2 mice/group and pooling their splenic cells. […]
In a first example, adjuvant activity of the natural sulfated glycolipid purified from Haloferax volcanii (6′-HSO3-D-Manp-α-1,2-D-Glcp-α-1,1-archaeol) was compared to a synthetic 6′-S-lactosylarchaeol, not found in nature. […] CD8^+ T cell responses measured by Elispot splenic cell assays. […]

EL-4+TRP target cells = assay: CD8+ T cell response (ELISPOT, CTL) to cancer self-antigen TRP / Gp100 delivered in archaeosomes; assay type: in vivo, mice; settings: TRP-liposomes; 15.5 weeks; FIG. 12
Procedure: as §2, §3
Peptides HLA.A2/H-2K^b TRP-2180-188 (SVYDFFVWL), CTL epitope from tyrosinase related protein-2 and Gp10025-35 (KVPRNQDWL) from human melanoma antigen Gp100 were synthesized. […] Quantification was done using a calibration curve based on known amounts of each of the respective peptides. […]

CC(C)CCCC(C)CCCC(C)CCCC(C)CCOCC(CO[C@@H]1O[C@H](CO)[C@@H](O[C@@H]2O[C@H](CO[C@@H]3O[C@H](COS(=O)(=O)O)[C@@H](O)[C@H](O)[C@H]3O)[C@H](O)[C@H](O)[C@H]2O)[C@H](O)[C@H]1O)OCCC(C)CCCC(C)CCCC(C)CCCC(C)C (stereo partly drawn) [sulfated-trisaccharide archaeol, 6′-sulfated β-D-Glcp-(1,6)-β-D-Galp-(1,4)-β-D-Glcp-(1,1)-archaeol]
antibody response to OVA in serum (anti OVA antibody (IgG)): strong antibody response

CC(C)CCCC(C)CCCC(C)CCCC(C)CCOCC(CO[C@@H]1O[C@H](CO[C@@H]2O[C@H](CO[C@@H]3O[C@H](CO)[C@@H](O)[C@H](O)[C@H]3O)[C@@H](O)[C@H](O)[C@H]2O)[C@@H](O)[C@H](O)[C@H]1O)OCCC(C)CCCC(C)CCCC(C)CCCC(C)C (stereo partly drawn) [Glc3A, β-Glcp-(1,6)-β-Glcp-(1,6)-β-D-Glcp-(1,1)-archaeol]
archaeosome vesicle formation / hydrating ability [1]: did not form

CC(C)CCCC(C)CCCC(C)CCCC(C)CCOCC(CO[C@@H]1OC(CO)[C@@H](O[C@@H]2OC(COS(=O)(=O)[O+]=[Na])[C@H](O)[C@H](O)C2O)[C@H](O)C1O)OCCC(C)CCCC(C)CCCC(C)CCCC(C)C (stereo partly drawn) [SLA, (2R)-2,3-Bis[(3R,7R,11R)-3,7,11,15-tetramethylhexadecyloxy]propan-1-yl 4-O-(6-O-sulfo-β-D-galactopyranosyl)-β-D-glucopyranoside]
Loading (μg antigen/mg archaeosome) [2]: 35.0 μg antigen/mg archaeosome and 22.0 μg antigen/mg archaeosome | Average Diameter (nm) 12 weeks ([3]; 12 weeks storage): 176 nm | Average Diameter (nm) 20 weeks ([3]; 20 weeks storage): 168 nm | Average Diameter (nm) At first injection ([3]; at first injection): 172 nm and 168 nm | archaeosome vesicle formation / hydrating ability [1]: excellent hydrating ability | CD8+ T cell response, frequency of IFN-γ-secreting splenic cells (Elispot) (CD8^+ T cell response): highest response | antibody response to OVA in serum (anti OVA antibody (IgG)): strong antibody response | adjuvant activity and CD8+ T cell response, archaeol from H. salinarum versus H. volcanii (EL-4+TRP target cells): equally effective

CC(C)CCCC(C)CCCC(C)CCCC(C)CCOCC(CO[C@@H]1O[C@H](CO)[C@@H](O[C@@H]2O[C@H](COS(=O)(=O)O)[C@H](OS(=O)(=O)O)[C@H](O)[C@H]2O)[C@H](O)[C@H]1O)OCCC(C)CCCC(C)CCCC(C)CCCC(C)C (stereo partly drawn) [di-sulfated LA, 4′-6′-disulfate-β-D-Galp-(1,4)-β-D-Glcp-(1,1)-archaeol]
antibody response to OVA in serum (anti OVA antibody (IgG)): strong antibody response

CC(C)CCC[C@@H](C)CCC[C@@H](C)CCC[C@@H](C)CCOC[C@@H](CO[C@@H]1O[C@H](CO)[C@@H](O[C@@H]2O[C@H](CO)[C@H](O)[C@H](O)[C@H]2O)[C@H](O)[C@H]1O)OCC[C@H](C)CCC[C@H](C)CCC[C@H](C)CCCC(C)C [LA, lactosylarchaeol]
archaeosome vesicle formation / hydrating ability [1]: did not hydrate well | archaeosome vesicle formation / hydrating ability ([1]; listed as lactosylarchaeol): did not form
